A short description of data set [1]: Solubility in buffer (aq.) medium. The data set is classed as physicochemical.
For data set [2], the system named is U2OS cells. Nature of the data set: Cell uptake studies by live-cell confocal microscopy. To be noted: 2 μM.
Method: (§1) Cells were seeded for 24 h on ibidi 8 well μ-slides treated with poly-L-lysine to reach ˜90% confluency. Cells were then washed three times with warm PBS followed by incubation for 1 h with warm serum-free medium (DMEM) containing peptides. Thereafter, cells were washed two times with warm PBS. Prior to imaging, cells were washed with an optical culture medium and stained with Hoechst (2 μg/ml). Live cell CLSM images were captured using Confocal Zeiss LSM 710 equipped with 40×NA 1.2 water immersion objective lens using a 1 AU pinhole settings. Different lasers were used for the different tags (Hoechst, TAMRA, FITC), and during analysis, the μ-slide was kept at 37° C. in a humidified chamber.
Data set [3] has as its system U2OS cells.
Method: as §1

Read-outs that look alike come from different tables or passages of the source. Starred links: 1 amine or outer side, 2 acyl side, 3 side chain; linkers in the order of their positions; H or OH if unused. Positions of bridges follow the written chain, without caps; N, C: chain ends. Residues, ends and D or L forms follow the SMILES beside them. *: point of attachment. Fluorescein(5-Mal) = O=C1OC2(c3ccc(O)cc3Oc3cc(O)ccc32)c2ccc(N3C(=O)CC(*)C3=O)cc21; X2 = CN(C)c1ccc2c(c1)Oc1cc(N(C)C)ccc1C21OC(=O)c2cc(N3C(=O)CC(*)C3=O)ccc21; X1 = O=C(c1cccc(C[*:2])c1)[*:1]

In the case of `CC[C@H](C)[C@@H]1NC(=O)[C@H](Cc2c[nH]c3ccccc23)NC(=O)[C@H]([C@@H](C)CC)NC(=O)[C@H](CC(C)C)NC(=O)[C@H](CS)NC(=O)c2cccc(c2)CSC[C@@H](C(=O)NCC(N)=O)NC(=O)[C@H](CC(C)C)NC(=O)[C@H]([C@@H](C)CC)NC(=O)[C@H](Cc2ccc(O)cc2)NC(=O)[C@@H]2CCCN2C(=O)[C@H](CC(N)=O)NC(=O)[C@H](CCCCN)NC(=O)[C@H](CO)NC(=O)[C@H](CO)NC(=O)CNC1=O` [cyclic peptide 2] (CLIWIGSSKNPYILCG-NH2; linker N-15 via X1), in data set [1], the “aqueous solubility” value is listed as “poor aqueous solubility”.

On to `CC[C@H](C)[C@@H]1NC(=O)[C@H](Cc2c[nH]c3ccccc23)NC(=O)[C@H]([C@@H](C)CC)NC(=O)[C@H](CC(C)C)NC(=O)[C@H](CS)NC(=O)c2cccc(c2)CSC[C@@H](C(=O)NCC(=O)N[C@@H](C)C(=O)N[C@@H](CSC2CC(=O)N(c3ccc4c(c3)C(=O)OC43c4ccc(N(C)C)cc4Oc4cc(N(C)C)ccc43)C2=O)C(N)=O)NC(=O)[C@H](CC(C)C)NC(=O)[C@H]([C@@H](C)CC)NC(=O)[C@H](Cc2ccc(O)cc2)NC(=O)[C@@H]2CCCN2C(=O)[C@H](CC(N)=O)NC(=O)[C@H](CCCCN)NC(=O)[C@H](CO)NC(=O)[C@H](CO)NC(=O)CNC1=O` (stereo partly drawn) [cyclic peptide 26] (CLIWIGSSKNPYILCGAC(X2)-NH2; linker N-15 via X1), for which the “cell-permeability / delivery to live cells” value in data set [2] is “efficient cell-permeability”.

With `CC[C@H](C)[C@@H]1NC(=O)[C@H](Cc2c[nH]c3ccccc23)NC(=O)[C@H]([C@@H](C)CC)NC(=O)[C@H](CC(C)C)NC(=O)[C@H](CS)NC(=O)c2cccc(c2)CSC[C@@H](C(=O)NCC(=O)N[C@@H](C)C(=O)N[C@@H](CSC2CC(=O)N(c3ccc4c(c3)C(=O)OC43c4ccc(O)cc4Oc4cc(O)ccc43)C2=O)C(N)=O)NC(=O)[C@H](CC(C)C)NC(=O)[C@H]([C@@H](C)CC)NC(=O)[C@H](Cc2ccc(O)cc2)NC(=O)[C@@H]2CCCN2C(=O)[C@H](CC(N)=O)NC(=O)[C@H](CCCCN)NC(=O)[C@H](CO)NC(=O)[C@H](CO)NC(=O)CNC1=O` (stereo partly drawn) [cyclic peptide 29] (CLIWIGSSKNPYILCGAC(Fluorescein(5-Mal))-NH2; linker N-15 via X1), the “cell-permeability / delivery to live cells” value in data set [3] is “did not observe an efficient delivery”.

For the origin of these results see patent US20250099534A1, “UBIQUITIN HIGH AFFINITY CYCLIC PEPTIDES AND METHODS OF USE THEREOF” (TECHNION RESEARCH & DEVELOPMENT FOUNDATION LIMITED, priority 2022, published 2025).
